# Test results taken from patent publication US20040039054A1, “Use of L-carnitine and derivatives for reducing ceramide levels and potentiating antiretroviral drugs” (SIGMA-TAU INDUSTRIE, priority 1995, published 2004).
# Columns and labels:
# [1] = test system: lymphocyte ceramide; assay: Lymphocyte ceramide by DAG (diacylglycerol) kinase assay in AIDS patients; assay type: in vivo, human
# [2] = test system: HIV; assay: Viral load in muscle biopsy homogenates of AIDS subjects; assay type: in vivo; settings: individual patients and group mean
# Protocol: The determinations were carried out prior to the combined treatment, while patients were taking only AZT (T0), after 4 weeks of therapy with the L-carnitine-AZT combination (T1) and one month after discontinuation of treatment with L-carnitine (T2), leaving the patients on AZT alone. TCD4 lymphocytes were measured by flow cytometry by means of a specific monoclonal antibody (number of lymphocytes per mm^3) and the apoptotic lymphocytes by flow cytometry after staining with propydium iodide, quantifying the cells with hypodiploid nuclei (number of lymphocytes per 50,000 cells). The viral load (number of viral particles per ml of serum) was determined by quantifying HVI-1 RNA by means of a polymerase chain reaction (Amplicor HIV detection system by Roche). The Wilcoxon test was used for the statistical processing.
# (§1) Four subjects with AIDS were treated with 600 mg of AZT daily by mouth. Of these, two were also treated with L-carnitine 3 g daily. The total duration of the treatment was 6 months. Muscle biopsies were performed before and after treatment. The ceramide present at muscle cell level was determined before and after treatment, after sonicating and homogenizing the biopsy material. The viral load was determined in the same muscle homogenates, as described in Example 1.
# [3] = test system: ceramide; assay: Ceramide at muscle cell level in muscle biopsy homogenates of AIDS subjects; assay type: in vivo, human; settings: muscle biopsy before treatment (baseline), individual patients and group mean
# Protocol: as §1
smiles,measurement,setting,value
"Cc1cn([C@H]2C[C@H](N=[N+]=[N-])[C@@H](CO)O2)c(=O)[nH]c1=O [AZT, zidovudine]","levels of lymphocyte ceramide, T0","[1]; T0: prior to combination treatment, patients on AZT only, 13 patients",48±8 pmol/10^6 lymphocytes
same,"levels of lymphocyte ceramide, T2","[1]; T2: one month after discontinuation of L-carnitine, patients on AZT alone",38±9 pmol/10^6 lymphocytes
same,Post-treatment HIV (viral particles/mg protein),"[2]; muscle homogenate after 6 months, AZT 600 mg daily by mouth, with or without L-carnitine 3 g daily","4,950 viral particles/mg protein"
same,Pre-treatment HIV (viral particles/mg protein),[2]; muscle homogenate before treatment (baseline),"4,850 viral particles/mg protein"
same,Pre-treatment ceramide (pmoL/mg protein),[3],92 pmoL/mg protein
